Test results from patent publication US20080214455A1, “Novel Chemical Compounds” (SMITHKLINE BEECHAM CORPORATION, priority 2005, published 2008).

Molecular target: T1, hYAK3 (Homo sapiens, UniProt O43781)
T1 construct: GST (N); His6 (C); made in house; host or cells: baculovirus expression system in Sf9 cells
T1 sequence (O43781 142-526): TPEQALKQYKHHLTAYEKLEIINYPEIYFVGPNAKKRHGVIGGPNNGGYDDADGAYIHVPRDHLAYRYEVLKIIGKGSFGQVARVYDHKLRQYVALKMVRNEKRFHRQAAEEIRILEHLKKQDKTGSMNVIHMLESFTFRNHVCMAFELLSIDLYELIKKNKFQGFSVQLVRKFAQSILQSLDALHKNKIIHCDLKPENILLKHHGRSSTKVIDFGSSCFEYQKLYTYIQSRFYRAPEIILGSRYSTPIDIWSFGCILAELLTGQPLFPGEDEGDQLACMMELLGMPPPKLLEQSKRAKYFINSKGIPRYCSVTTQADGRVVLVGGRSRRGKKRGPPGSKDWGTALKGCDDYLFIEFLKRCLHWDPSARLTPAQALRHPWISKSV
Assay: YAK3 Scintillation Proximity Assay using Ser164 of myelin basic protein as the phosphoacceptor (kinase assay of purified hYAK3)
Type: biochemical
Conditions: purified GST-hYak3-His6; 1 μM ATP; 4 μM Ser164 peptide; 2 hours at room temperature
Experimental: Substrate phosphorylation assays were carried out as follows:
YAK3 Scintillation Proximity Assays Using Ser164 of Myelin Basic Protein as the Phosphoacceptor
The source of Ser164 substrate peptide The biotinylated Ser164, S164A peptide(LGGRDSRAGS*PMARRKK-ahx-Biotin-Amide), sequence derived from the C-terminus of bovine myelin basic protein (MBP) with Ser162 substituted as Ala 162, was purchased from California Peptide Research Inc. (Napa, Calif.), and its purity was determined by HPLC. Phosphorylation occurs at position 164 (marked S* above). The calculated molecular mass of the peptide is 2166 dalton. Solid sample was dissolved at 10 mM in DMSO, aliquoted, and stored at −20 C until use. […]
Kinase assay of purified hYAK3: Assays were performed in 96 well (Costar, Catalog No.3789) or 384 well plates (Costar, Catalog No.3705). […] Compounds, titrated in DMSO, were evaluated at concentrations ranging from 50 μM to 0.2 nM. […]
The data for compound dose responses were plotted as % Inhibition, calculated with the data reduction formula 100*(1-[(U1-C2)/(C1-C2)]), versus concentration of compound, where U is the unknown value, C1 is the average control value obtained for DMSO, and C2 is the average control value obtained for 0.05M EDTA. […] The results for each compound were recorded as pIC50 calculated as follows: pIC50=−Log 10(K).

O=C1N=C(Nc2c(Cl)cccc2Cl)S/C1=C\c1ccc2ncc(N3CCOCC3)nc2c1 [Example 1, (5Z)-2-[(2,6-Dichlorophenyl)amino]-5-{[3-(4-morpholinyl)-6-quinoxalinyl]methylidene}-1,3-thiazol-4(5H)-one]
IC50: 1.26 nM
